Experimental data published in patent US12085575B2, “Compositions and methods for detecting proteinopathies” (BOARD OF SUPERVISORS OF LOUISIANA STATE UNIVERSITY AND …, priority 2011, dated 2024).
Residues, ends and D or L forms follow the SMILES beside them. *: point of attachment. Cbz = O=C(OCc1ccccc1)*

Tests used:
Assay type in all cases: cell-based, human
[1] = test system: LC3 and p62; assay: UV-induced degradation of autophagy substrates LC3 and p62 (Western blot)
Protocol: Immunoblotting and immunofluorescence analysis: Immunoblotting analysis of proteins in cultured cells: Cells ([…]) were cultured in 35 mm tissue culture plates. After various experimental treatments, cells were lysed using an SDS-PAGE sample buffer. Cell lysates were then analyzed by SDS-PAGE (10% for p62 or 15% for LC3 and polyubiquitin conjugates) and immunoblotting analysis using either anti-ISG15 (raised against human ISG15 (23)), anti-ubiquitin (Sigma-Aldrich), anti-HA (gift from Dr. Walworth at Robert Wood Johnson Medical School/University of Medicine and Dentistry of New Jersey; Piscataway, NJ)), anti-LC3 (MBL International Corporation; Woburn, MA), or p62 (Sigma-Aldrich) antibodies, as indicated, using the ECL Western procedure (Pierce) and the BioRad VersaDoc Imaging System.
Because degradation of proteasome substrates is deregulated in A-T cells, the degradation of the autophagy substrates (autophagic flux) LC3 and p62 was assessed in UV-exposed A-T and ATM+ cells (55). For FIGS. 10A-10D, A-T and ATM+ cells were treated with Bafl (1 nM for 18 h) and then exposed to UV as indicated (25 mJ/m2). Three hours after recovery in the presence of inhibitors, cells were lysed. Cell lysates were analyzed by Western blotting for LC3 (FIG. 10A), p62 […], and actin (lower panels in FIGS. 10A and 10C) using their specific antibodies. Intensity of the total LC3 (LC3-I+II) and p62 proteins was quantitated using BioRad Quantity One software, and the results shown in FIGS. 10B and 10D, respectively. […] show average values (±SEM) of % degradation of LC3 and p62 from three independent experiments. All control values (−UV and +Bafl) are normalized to 100%, and values for experimental treatments were expressed as percent variations over control
UV induces aberrant degradation of autophagy substrate LC3 in A-T cells and brain slices. In FIG. 19A, LC3 degradation in UV-treated A-T cells is shown. […] Intensities of the total LC3 bands were quantitated using BioRad Quantity One software.

[2] = test system: HA-polyubiquitylated proteins; assay: UV-induced degradation of HA-polyubiquitylated proteins (anti-HA Western blot); conditions: A-T cells; 50 nM Bafl
[3] = test system: autophagosomes and autophagolysosomes; assay: Cyt-ID and LysoTracker Red staining of autophagosomes, lysosomes and autophagolysosomes; conditions: for fusion between autophagosomes and lysosomes: Bafl 1 nM 18 h; for mean # of green dots/cell (autophagosomes) / mean # of yellow dots/cell (autophagolysosomes): A-T/control shRNA cells, bafilomycin treated
Protocol: Autophagasome, lysosome and autophagolysosomes staining. Cells (100,000/point) were cultured on fibronectin-coated glass coverslips. Cells were treated with autophagy inhibitor Bafl (1 nM) (Sigma-Aldrich) for 18 hr. Cells were then exposed to UV radiation and allowed to recover in the presence of inhibitors for 3 h. Cells were then washed (2×1 min) with PBS and co-stained with Cyt-ID® (Cyt-ID® Autophagy Detection Kit from Enzo Lifesciences; Farmingdale, NY) and Lyso Tracker® Red DND-99 (Invitrogen) for 30 min at 37° C. in a CO2 incubator following manufacturer's protocol. Stained cells were then washed (2×1 min) with PBS and fixed with 4% paraformaldehyde for 20 min at room temperature. After washing with PBS (3×10 min), cells were mounted on slides in anti-fade mounting medium with DAPI (Invitrogen). Images were taken using a 63× oil immersion objective with a Leica DMRA2 upright microscope run through SlideBook software (Intelligent Imaging Innovations).
Autophagic flux was also monitored using Cyto-ID® and LysoTrack Red dyes. A-T and ATM+ cells were treated with Bafl (1 nM for 18 h) and then exposed to UV (25 mJ/m2) as indicated. Three hours after recovery in the presence of inhibitors, cells were co-stained with Cyt-ID® and LysoTracker Red® dyes. Fluorescence images of Cyt-ID® and LysoTracker Red® stained cells were made (Color images not shown). Green (autophagosomes; from Cyt-TD®-stained panels), red (lysosomes; from LysoTracker Red-stained panels), and yellow (autophagolysosomes; from merged panels) dots in A-T and ATM+ cells were counted manually using the ImageJ plug-in Cell Counter. Mean number of dots/cell is shown in FIGS. 11A and 11B, respectively. In FIGS. 11A and 11B, the number of autophagosomes (green dots) is represented by stippled bars; the number of lysosomes (red dots) is presented by lined bar; and the number of autophagolysosomes (yellow dots) is represented by clear (white) bars.
Bafilomycin inhibits autophagy at a late stage (47). Whether 3-methyl adenine (3-MA), an autophagy inhibitor known to inhibit autophagy at early stage by inhibiting formation of autophagosomes (56), could block UV-induced autophagic flux was tested in A-T/LV-control shRNA cells. Using Cyto-ID® and LysoTrack Red dyes as described herein in FIGS. 9A, 9B, 11A and 11B, the same criteria were used to judge autophagic activity in immunofluorescence analysis as described for FIGS. 11A and 11B.
The effect of 3-MA on UV-induced autophagic flux was tested in A-T/LV-ISG15 shRNA cells. A-T/LV-ISG15 shRNA cells were either left untreated or treated with 3-MA (10 nM for 18 h), and cells were then exposed to UV (25 mJ/m2). Three hours after recovery in the presence of the inhibitor, cells were co-stained with Cyt-ID® and LysoTracker Red® dyes. Fluorescence images of Cyt-ID® and LysoTracker Red® stained cells were made.

[4] = test system: p53; assay: p53 turnover with CHX with or without MG132; conditions: ATM+ cells, MG132 10 μM, CHX 10 μg/ml, 6 hours
Protocol: Both p53 and STAT3 are known targets of the ubiquitin/26S proteasome pathway. To determine whether steady state level of these proteins is regulated by ATM, turnover of both p53 and STAT3 were measured. In FIG. 2C, FT169A (A-T) and FT169A (ATM+) cells were treated with the protein synthesis inhibitor CHX (10 μg/ml) in the presence (lanes 3 and 6) or absence (lanes 2 and 5) of the proteasome inhibitor MG132 (10 μM) for 6 hours. Cell lysates were analyzed by immunoblotting using an anti-p53 antibody (upper row). The intensity of the p53 bands was measured using a Kodak Image station 2000R […]. Results are shown in the bar graph (right panel). The filter used for immunoblotting was stained with Ponceau S to assure equal protein loading (lower row). […] By contrast, p53 protein was rapidly degraded within 6 hours of CHX treatment in FT169A (ATM+) cells (FIG. 2C, lanes 4 and 5, and bar graph for p53 band quantization).

| Compound | UV-mediated degradation of LC3 and p62 ([1]; A-T cells, Bafl 1 nM 18 h, UV 25 mJ/m2) | LC3 and p62 levels ([1]; ATM+ cells treated with UV in the absence or presence of Bafl) | UV-induced autophagic flux (LC3 degradation) ([1]; ATM+ cells, Bafilomycin A1 1 nM 18 h, UV 25 mJ) | UV-induced degradation of cellular proteins [2] | fusion between autophagosomes and lysosomes ([3]; A-T cells) | mean # of green dots/cell (autophagosomes) ([3]; with UV) | mean # of yellow dots/cell (autophagolysosomes) ([3]; with UV) | mean # of green dots/cell (autophagosomes) ([3]; without UV) | mean # of yellow dots/cell (autophagolysosomes) ([3]; without UV) | fusion between autophagosomes and lysosomes ([3]; ATM+ cells) | turnover of p53 in the presence of CHX [4] |
| --- | --- | --- | --- | --- | --- | --- | --- | --- | --- | --- | --- |
| CO/C1=C\C(C)=C\[C@@H](C)[C@@H](O)[C@@H](C)C/C(C)=C/C=C/[C@H](OC)[C@@H]([C@@H](C)[C@@H](O)[C@H](C)[C@@]2(O)C[C@@H](O)[C@H](C)[C@@H](C(C)C)O2)OC1=O [Bafilomycin A1] | failed to protect | no apparent changes | protected | failed to protect | failed to do so | 0.8 dots/cell | 1.5 dots/cell | 6 dots/cell | 5.8 dots/cell | blocked fusion |  |
| CC(C)C[C@@H](C=O)NC(=O)[C@H](CC(C)C)NC(=O)[C@H](CC(C)C)NC(=O)OCc1ccccc1 [MG132] (Cbz-Leu-Leu-Leu-aldehyde) |  |  |  |  |  |  |  |  |  |  | blocked |
